Reference: patent US20140296346A1, “Crystalline Forms of (-)-(1R,2R)-3-(3-dimethylamino-1-ethyl-2-methylpropyl)-phenol hydrochloride” (priority 2004, published 2014)
Structures can show the parent of a compound that is named as a salt.

Key:
[1] = Stability of the crystalline form under ambient conditions
[2] = Variable temperature X-ray powder diffraction experiment; type: physicochemical; settings: variable temperature XRPD
Description: Variable Temperature X-Ray Powder Diffraction Experiment
A variable temperature X-ray powder diffraction experiment was run thereby producing Form B from Form A. Form A converted to Form B from 40-50° C. during the experiment.

For `CC[C@@H](c1cccc(O)c1)[C@@H](C)CN(C)C` [Form A, (-)-(1R,2R)-3-(3-dimethylamino-1-ethyl-2-methylpropyl)-phenol hydrochloride], the “Stability at ambient conditions” value [1] was “very stable”, the “Stability under ambient conditions compared with Form B” value ([1]; relative to Form B) was “more stable” and the “Temperature at which Form A converted to Form B” value ([2]; on heating) was 40-50 °C.
In the case of `CC[C@@H](c1cccc(O)c1)[C@@H](C)CN(C)C.Cl` [Form B, (-)-(1R,2R)-3-(3-dimethylamino-1-ethyl-2-methylpropyl)-phenol hydrochloride], the “Reversibility of the polymorphic conversion” value ([2]; at lower temperature) is reported as “changing over into Form A at lower temperature”.
